Test results as given in patent publication US20260001893A1, “SMALL MOLECULE MODULATORS OF STAT6” (Gilead Sciences, Inc., priority 2024, published 2026).

Tested on: Eotaxin-3 (CCL26) release in human whole blood stimulated with IL-4
Assay: Human whole blood eotaxin-3 assay (IL-4 stimulated eotaxin-3 release)
Assay type: cell-based
Settings: human whole blood stimulated with recombinant human IL-4, 48 h, geometric mean; for EC50: inhibition of eotaxin-3 release, given for test compounds with >80% Emax; for Emax: given for test compounds with <80% Emax
Description: Human Whole Blood Eotaxin-3 Assay
This was a human whole blood assay using recombinant human Interleukin 4 to stimulate the blood and measuring the ability of the test compounds to inhibit eotaxin-3 release. The biological activities of the test compounds have been tested in human whole blood stimulated with IL-4 measuring Eotaxin-3 release. The test compounds were added to 384 well clear flat-bottom plate in a 4-fold serial dilution in triplicates using a liquid handler. Human whole blood stabilized in lithium-heparin tubes was added in a volume of 65 μL per well, resulting in a final DMSO concentration of 0.5%. The plate is incubated for 2 h at 37° C. under 5% CO2/95% air. Subsequently, 5 μL of recombinant human IL-4 (R&D Systems, cat #204-ILB) was added to the wells to a final concentration of […]. The plate was incubated for 48 h at 37° C. under 5% CO2/95% air. The plate was spun down for 10 minutes at 500×g and 20 μL supernatant was harvested and transferred to a 384 well v-bottom plate using a liquid handler and stored at −20° C. until further analysis. 10 μL supernatant was used to measure the level of Eotaxin-3 (CCL26) using Human Eotaxin-3 MSD kit from Mesocsale (Cat #K251UEK-4). The assay was performed according to the manufacture instructions.
The data from the human whole blood eotaxin-3 assay is shown below for Examples 1ab3, 1ab6, 1d23, and 1d4 (where the effect in % is plotted against the test concentration in M on a log-scale).

Row | Structure (SMILES) | EC50 (Homo sapiens, 48 h) [nM] | other results
1 | CN(C)C(=O)c1cc(F)c(C2CCN(Cc3cc4c(-n5ccc6c(c5=O)CCN6)ccnc4n3C)CC2)c(F)c1 [Example 1m110, 3,5-difluoro-N,N-dimethyl-4-(1-((1-methyl-4-(4-oxo-1,2,3,4-tetrahydro-5H-pyrrolo[3,2-c]pyridin-5-yl)-1H-pyrrolo[2,3-b]pyridin-2-yl)methyl)piperidin-4-yl)benzamide] | 15.1 | 
2 | CNc1ccn(-c2ccnc3c2cc([C@H](C)N2CC=C(c4c(C)cc(C(=O)N(C)C)nc4C)CC2)n3C)c(=O)c1 (single isomer, unassigned) [Example 1m99] |  | Emax (Homo sapiens, 48 h): < 20%
3 | C[C@H](c1cc2c(-n3ccc(N)c(F)c3=O)ccnc2n1C)N1CC=C(c2ccc(C(=O)N(C)C)cn2)CC1 (single isomer, unassigned) [Example 1m76] |  | Emax (Homo sapiens, 48 h): < 20%
4 | C[C@H](c1cc2c(-n3ccc4c(c3=O)CCN4)ccnc2n1C)N1CCC(c2c(F)cc(C(=O)N(C)C)cc2F)CC1 [Example 1m127, (R)-3,5-difluoro-N,N-dimethyl-4-(1-(1-(1-methyl-4-(4-oxo-1,2,3,4-tetrahydro-5H-pyrrolo[3,2-c]pyridin-5-yl)-1H-pyrrolo[2,3-b]pyridin-2-yl)ethyl)piperidin-4-yl)benzamide] | 49.5 | 
5 | CNc1ccn(-c2ccnc3c2cc([C@@H](C)N2CC=C(c4c(C)cc(C(=O)N(C)C)cc4F)CC2)n3C)c(=O)c1 (single isomer, unassigned) [Example 1m105] | 80.6 | 
6 | [2H]C([2H])([2H])N(C(=O)c1ccc(C2CCN([C@@H](C)c3cc4c(-n5ncc(N)cc5=O)ccnc4n3C)CC2)cc1)C([2H])([2H])[2H] [Example 1af62, (S)-4-(1-(1-(4-(4-amino-6-oxopyridazin-1 (6H)-yl)-1-methyl-1H-pyrrolo[2,3-b]pyridin-2-yl)ethyl)piperidin-4-yl)-N,N-bis(methyl-d3)benzamide] |  | Emax (Homo sapiens, 48 h): 20 to 30%
7 | CNc1ccn(-c2ccnc3c2cc(CN2CCC(c4c(F)cc(C(=O)N(C)C)cc4F)CC2)n3C)c(=O)c1F [Example 1m116, 3,5-difluoro-4-(1-((4-(3-fluoro-4-(methylamino)-2-oxopyridin-1 (2H)-yl)-1-methyl-1H-pyrrolo[2,3-b]pyridin-2-yl)methyl)piperidin-4-yl)-N,N-dimethylbenzamide] | 229 | 
8 | CN(C)C(=O)c1ccc(C2=CCN(Cc3cc4c(-n5ccc6c(c5=O)CCN6)ccnc4n3C)CC2)cc1F [Example 1m83, 2-fluoro-N,N-dimethyl-4-(1-((1-methyl-4-(4-oxo-1,2,3,4-tetrahydro-5H-pyrrolo[3,2-c]pyridin-5-yl)-1H-pyrrolo[2,3-b]pyridin-2-yl)methyl)-1,2,3,6-tetrahydropyridin-4-yl)benzamide] |  | Emax (Homo sapiens, 48 h): 30 to 40%
9 | CNc1ccn(-c2ccnc3c2cc([C@H](C)N2CC[C@@H](c4c(C)cc(C(=O)N(C)C)cc4F)C(F)(F)C2)n3C)c(=O)c1 (stereo in doubt) [Example 1m142, 4-((S)-3,3-difluoro-1-((S)-1-(1-methyl-4-(4-(methylamino)-2-oxopyridin-1 (2H)-yl)-1H-pyrrolo[2,3-b]pyridin-2-yl)ethyl)piperidin-4-yl)-3-fluoro-N,N,5-trimethylbenzamide] |  | EC50: 13.6 nM
10 | [2H]C([2H])([2H])N(C(=O)c1ccc(C2CCN([C@@H](C)c3cc4c(-n5ccc6[nH]ncc6c5=O)ccnc4n3C)CC2)cc1)C([2H])([2H])[2H] [Example 1m89, (S)—N,N-bis(methyl-d3)-4-(1-(1-(1-methyl-4-(4-oxo-1,4-dihydro-5H-pyrazolo[4,3-c]pyridin-5-yl)-1H-pyrrolo[2,3-b]pyridin-2-yl)ethyl)piperidin-4-yl)benzamide] | 5.87 | 
11 | CNc1cc(=O)n(-c2ccnc3c2cc([C@H](C)N2CCC(c4c(C)cc(C(=O)N(C)C)cc4F)CC2)n3C)cc1F [Example 1m131, (S)-3-fluoro-4-(1-(1-(4-(5-fluoro-4-(methylamino)-2-oxopyridin-1 (2H)-yl)-1-methyl-1H-pyrrolo[2,3-b]pyridin-2-yl)ethyl)piperidin-4-yl)-N,N,5-trimethylbenzamide] | 891 | 
12 | CNc1ccn(-c2ccnc3c2cc([C@H](C)N2CC=C(c4c(C)cc(C(=O)N(C)C)cc4F)CC2)n3C)c(=O)n1 [Example 1m106, (S)-3-fluoro-N,N,5-trimethyl-4-(1-(1-(1-methyl-4-(4-(methylamino)-2-oxopyrimidin-1 (2H)-yl)-1H-pyrrolo[2,3-b]pyridin-2-yl)ethyl)-1,2,3,6-tetrahydropyridin-4-yl)benzamide] | 2.96 | 
13 | [2H]C([2H])([2H])N(C(=O)c1cc(F)c(C2CCN(Cc3cc4c(-n5ccc(NC)cc5=O)ccnc4n3C)CC2)c(F)c1)C([2H])([2H])[2H] [Example 1m102, 3,5-difluoro-N,N-bis(methyl-d3)-4-(1-((1-methyl-4-(4-(methylamino)-2-oxopyridin-1 (2H)-yl)-1H-pyrrolo[2,3-b]pyridin-2-yl)methyl)piperidin-4-yl)benzamide] | 23.4 | 
14 | [2H]C([2H])([2H])N(C(=O)c1cc(F)c(C2=CCN(Cc3cc4c(-n5ccc(NC)cc5=O)ccnc4n3C)CC2)c(F)c1)C([2H])([2H])[2H] [Example 1m98, 3,5-difluoro-N,N-bis(methyl-d3)-4-(1-((1-methyl-4-(4-(methylamino)-2-oxopyridin-1 (2H)-yl)-1H-pyrrolo[2,3-b]pyridin-2-yl)methyl)-1,2,3,6-tetrahydropyridin-4-yl)benzamide] | 22.4 | 
15 | Cc1cc(C(=O)N(C)C)cc(F)c1C1=CCN([C@@H](C)c2cc3c(-n4cc(F)c(N)c(F)c4=O)ccnc3n2C)CC1 [Example 1m132, (S)-4-(1-(1-(4-(4-amino-3,5-difluoro-2-oxopyridin-1 (2H)-yl)-1-methyl-1H-pyrrolo[2,3-b]pyridin-2-yl)ethyl)-1,2,3,6-tetrahydropyridin-4-yl)-3-fluoro-N,N,5-trimethylbenzamide] | 10.8 | 

Continued, in another order:

Row | EC50 (Homo sapiens, 48 h) [nM] | Structure (SMILES) | other results
16 | 4.55 | Cc1cc(C(=O)N(C)C)cc(F)c1C1=CCN(Cc2cc3c(-n4ccc(N)c(C)c4=O)ccnc3n2C)CC1 [Example 1m87, 4-(1-((4-(4-amino-3-methyl-2-oxopyridin-1 (2H)-yl)-1-methyl-1H-pyrrolo[2,3-b]pyridin-2-yl)methyl)-1,2,3,6-tetrahydropyridin-4-yl)-3-fluoro-N,N,5-trimethylbenzamide] | 
17 | 185 | [2H]C([2H])([2H])N(C(=O)c1cc(C)c(C2=CCN(Cc3cc4c(-n5ccc(NC)c(C)c5=O)ccnc4n3C)CC2)c(F)c1)C([2H])([2H])[2H] [Example 1m114, 3-fluoro-5-methyl-N,N-bis(methyl-d3)-4-(1-((1-methyl-4-(3-methyl-4-(methylamino)-2-oxopyridin-1 (2H)-yl)-1H-pyrrolo[2,3-b]pyridin-2-yl)methyl)-1,2,3,6-tetrahydropyridin-4-yl)-benzamide] | 
18 | 8.9 | [2H]C([2H])([2H])N(C(=O)c1cc(C)c(C2=CCN(Cc3cc4c(-n5ccc(NC)cc5=O)ccnc4n3C)CC2)c(F)c1)C([2H])([2H])[2H] [Example 1ad8, 3-Fluoro-5-methyl-N,N-bis(methyl-d3)-4-(1-((1-methyl-4-(4-(methylamino)-2-oxopyridin-1 (2H)-yl)-1H-pyrrolo[2,3-b]pyridin-2-yl)methyl)-1,2,3,6-tetrahydropyridin-4-yl)benzamide] | 
19 | 11.3 | [2H]C([2H])([2H])N(C(=O)c1cc(C)c(C2=CCN(Cc3cc4c(-n5cc(F)c(N)cc5=O)ccnc4n3C)CC2)c(F)c1)C([2H])([2H])[2H] [Example 1ad11, 4-(1-((4-(4-amino-5-fluoro-2-oxopyridin-1 (2H)-yl)-1-methyl-1H-pyrrolo[2,3-b]pyridin-2-yl)methyl)-1,2,3,6-tetrahydropyridin-4-yl)-3-fluoro-5-methyl-N,N-bis(methyl-d3)benzamide] | 
20 | 12.1 | CN(C)C(=O)c1cc(F)c(C2=CCN(Cc3cc4c(-n5ccc6c(c5=O)CCN6)ccnc4n3C)CC2)c(C2CC2)c1 (single isomer, unassigned) [Example 1m135, 3-cyclopropyl-5-fluoro-N,N-dimethyl-4-(1-((1-methyl-4-(4-oxo-1,2,3,4-tetrahydro-5H-pyrrolo[3,2-c]pyridin-5-yl)-1H-pyrrolo[2,3-b]pyridin-2-yl)methyl)-1,2,3,6-tetrahydropyridin-4-yl)benzamide] | 
21 | 25.1 | CNc1ccn(-c2ccnc3c2cc([C@H](C)N2CC=C(c4c(C)cc(C(=O)N(C)C)cc4F)CC2)n3C)c(=O)c1F [Example 1m125, (S)-3-fluoro-4-(1-(1-(4-(3-fluoro-4-(methylamino)-2-oxopyridin-1 (2H)-yl)-1-methyl-1H-pyrrolo[2,3-b]pyridin-2-yl)ethyl)-1,2,3,6-tetrahydropyridin-4-yl)-N,N,5-trimethylbenzamide] | 
22 | 2.61 | CNc1ccn(-c2ccnc3c2cc([C@H](C)N2CC=C(c4c(C)cc(C(=O)N(C)C)cc4F)CC2)n3C)c(=O)c1 [Example 1af82, (S)-3-fluoro-N,N,5-trimethyl-4-(1-(1-(1-methyl-4-(4-(methylamino)-2-oxopyridin-1 (2H)-yl)-1H-pyrrolo[2,3-b]pyridin-2-yl)ethyl)-1,2,3,6-tetrahydropyridin-4-yl)benzamide] | 
